Data set [1] relates to BEAS-2B normal lung epithelial cells. Put plainly: MTS cytotoxicity assay, BEAS-2B. It is filed as cell-based, human. The following applies: read-out: IC50 (mean ± SD). How it is done: (§1) Human lung cancer (A549), human normal lung epithelial cell line (BEAS-2B), human stomach cancer (SGC-7901) and human ovarian cancer (SK-OV-3) were purchased from ATCC, whereas cisplatin-resistant SK-OV-3 cells (SK-OV-3/DDP) were kindly provided by Chinese Academy of Medical Sciences (Beijing, China). Cells were grown in DMEM or RPMI-1640 medium (Hyclone, USA) containing 10% fetal bovine serum. Both media were supplemented with 100 units/ml of penicillin and 100 μg/ml of streptomycin. Cells were maintained at 37°C in a humidified incubator with an atmosphere of 5% CO2.
(§2) Cytotoxicity was determined by performing MTS assay. Briefly, 100 μl of cells suspension were seeded in 96-well cell culture plates and allowed to adhere overnight. The cells were treated with drugs for 48 hours, and then 20 μl of CellTiter 96® AQueous One Solution Reagent (Promega, Madison, USA) was added and the cells were further incubated at 37°C for 1–2 h. Cell viability was measured by reading the absorbance at a wavelength of 490 nm. Concentrations of 50% inhibition of growth (IC50) were calculated on the basis of the relative survival curve.
On the technique in general: Tetrazolium assays rely on reduction of a dye to a coloured formazan, in cell work by metabolically active cells.

Data set [2] concerns A549 cells (non-small cell lung carcinoma). Put plainly: MTS cytotoxicity assay, A549. It counts as cell-based, human. To be noted: read-out: IC50 (mean ± SD). How it is done: as §1, §2
For data set [3], the system named is BEAS-2B normal human lung bronchial epithelial cells. Put plainly: Cell apoptosis assay (Annexin-V-FITC/Propidium iodide, flow cytometry), BEAS-2B. It is filed as cell-based. To be noted: t = 24 h, n = 3. How it is done:
(§3) Human lung cancer (A549), human normal lung epithelial cell line (BEAS-2B), human stomach cancer (SGC-7901) and human ovarian cancer (SK-OV-3) were purchased from ATCC, whereas cisplatin-resistant SK-OV-3 cells (SK-OV-3/DDP) were kindly provided by Chinese Academy of Medical Sciences (Beijing, China). Cells were grown in DMEM or RPMI-1640 medium (Hyclone, USA) containing 10% fetal bovine serum. Both media were supplemented with 100 units/ml of penicillin and 100 μg/ml of streptomycin. Cells were maintained at 37°C in a humidified incubator with an atmosphere of 5% CO2. To analyze the cells for apoptosis, cells were plated and allowed to adhere overnight. Cells were treated with drugs indicated for 24 hours and then analyzed for apoptosis using Annexin-V-FITC/Propidium iodide staining. Cells were trypsinized, pelleted, washed in PBS, and resuspended in 1×binding buffer containing Annexin-V-FITC and propidium iodide (BD Pharmingen) according to the manufacturer's instructions. The samples were analyzed for the apoptosis using a FACSCalibur flow cytometer (BD Biosciences, Franklin Lakes, NJ).
Background: In flow cytometry, cells or beads pass a laser one at a time.

In data set [4] the test system is SGC-7901 cells (gastric carcinoma). Put plainly: MTS cytotoxicity assay, SGC-7901. To be noted: read-out: IC50 (mean ± SD). It counts as cell-based, human. How it is done:
as §1, §2

The test system of another data set is A549 cells. Put plainly: Cell apoptosis assay (Annexin-V-FITC/Propidium iodide, flow cytometry), A549. It counts as cell-based, human. To be noted: t = 24 h, n = 3. How it is done: as §3
Data set [5] relates to cisplatin-resistant SK-OV-3 cells (SK-OV-3/DDP). Put plainly: MTS cytotoxicity assay, cisplatin-resistant SK-OV-3/DDP. It counts as cell-based, human. The following applies: for IC50: SK-OV-3/DDP cisplatin-resistant, MTS, t = 48 h, n = 3, read-out: IC50 (mean ± SD); for Resistance Index: ratio of IC50 value of resistant cells (SK-OV-3/DDP) to that of sensitive cells (SK-OV-3). How it is done:
Cross-resistance profile of the complexes 1a and 2a was evaluated. Resistance Index was defined as the ratio of IC50 value of resistant cells to that of sensitive cells. SK-OV-3 and cisplatin-resistant SK-OV-3 cells (SK-OV-3/DDP) cell lines were chosen for MTS assay because drug resistance frequently occurred in the chemotherapy of ovarian tumors. […] The results may be attributed to the synergistic effect between the platinum pharmacophores and DCA released by the hydrolysis of 1a and 2a in the cells.
as §1, §2

Data set [6] concerns SK-OV-3 cells (ovarian carcinoma). Put plainly: MTS cytotoxicity assay, SK-OV-3. It counts as cell-based, human. To be noted: read-out: IC50 (mean ± SD). How it is done: as §1, §2
The nature of a further data set: Solubility in solvents. It is filed as physicochemical.
Another data set can be described thus: Hydrolysis rate by HPLC. It counts as physicochemical. To be noted: 1:10 (v/v) solution of water and methanol, within 4 hours. How it is done:
Both complexes were nearly insoluble in water or ethanol (≈0.1 mg/ml) and slightly soluble in methanol and DMSO, but soluble in polyethyleneglycol 400 which was chosen as the solvent to make the stock solutions of the complexes for the following biological testing. The hydrolysis rate of the complexes in 1:10 (v/v) solution of water and methanol determined by HPLC was less than 2% within 4 hours and the hydrolysis products were, as expected, dichloroacetate and 1b for complex 1a, or 2b for complex 2a. Complexes 1b and 2b were also synthesized for comparison in HPLC measurements as well as in biological tests. As 1b and 2b were found very soluble in water (>25 mg/ml) compared with 1a or 2a, another synthetic reaction was employed to produce the desired complexes. Accordingly complexes 1b and 2b also have two positional isomeric forms. All the complexes used in our studies were, in fact, a mixture of two isomeric forms.
An Agilent Zorbax SB-C18 column (4.6 × 250 mm, 5 μm) was used with CH3OH/H2O as the mobile phase. The flow rate was 1.0 ml/min, and the column temperature is 40°C. The detection wavelength was 238 nm and the injection volume was 10 μl.

Setting [7] is: BEAS-2B normal cells, MTS, t = 48 h, n = 3.
[8] abbreviates: SK-OV-3 (sensitive), MTS, t = 48 h, n = 3, Table 3 cross-resistance experiment.
The mark [9] stands for this setting: SK-OV-3, MTS, t = 48 h, n = 3, Table 1.

This note sets out measurements from article PMC3746205, “Two mixed-NH3/amine platinum (II) anticancer complexes featuring a dichloroacetate moiety in the leaving group” (Scientific Reports, 2013).

Values joined by “and” are separate entries in the source; they are usually repeats but may differ in a detail not shown here. Identical values can stand only once. Like-named read-outs stand apart in the source and are kept apart here.

The term IC50 denotes the concentration at which inhibition is half-maximal. For the compound `N.N.[Cl][Pt][Cl]` [Cisplatin, cisplatin, reference compound], the IC50 in [1] (setting [7]) is 11.7 ± 0.51 µM; in data set [2] (A549, MTS, t = 48 h, n = 3), 14.8 ± 1.02 µM; in [4] (SGC-7901, MTS, t = 48 h, n = 3) it was 13.6 ± 1.03 µM; in [5] it was 19.2 ± 0.94 µM; in data set [6] (setting [8]), 5.15 ± 1.38 µM; in [6] (setting [9]), 5.04 ± 0.25 µM. Moreover, the “Apoptosis, % (mean ± SD)” value amounted to 2.64 ± 1.43% in [3] (12.5 μM); 5.86 ± 1.30% in data set [3] (25 μM); 38.93 ± 5.26% in data set [3] (50 μM); 42.80 ± 3.40% in data set [3] (100 μM); 20.09 ± 3.06% in the data set on A549 cells (A549, 12.5 μM); 32.84 ± 5.48% with A549 cells (A549, 25 μM). Moreover, the “Apoptosis, % (mean ± SD)” value in the data set with A549 cells (A549, 50 μM) is given as 50.51 ± 6.42%; in the data set on A549 cells (A549, 100 μM) it was 56.28 ± 6.91%. In [5], the “Resistance Index” value is listed as “≈4”.

`N.NC1CCCC1.O=C1[O][Pt][O]C(=O)C12CC(O)C2` [Complex 1b]: the IC50 amounted to 79.9 ± 2.57 µM in data set [1] (setting [7]); 61.5 ± 7.98 µM in data set [2] (A549, MTS, t = 48 h, n = 3); 56.2 ± 4.88 µM in [4] (SGC-7901, MTS, t = 48 h, n = 3); 74.2 ± 2.64 µM in data set [6] (setting [9]). In addition, the Solubility in water in the data set “Solubility in solvents” is over 25 mg/mL.

Take `O=C(O)C(Cl)Cl` [DCA, Dichloroacetate]: the IC50 was over 200 µM in data set [1] (Homo sapiens, BEAS-2B, 48 h); over 200 µM in [2] (Homo sapiens, A549, 48 h); over 200 µM in data set [4] (Homo sapiens, SGC-7901, 48 h); over 200 µM in data set [6] (Homo sapiens, SK-OV-3, 48 h).

Turning to `N.NC1CCCCC1.O=C(OC1CC2(C1)C(=O)[O][Pt][O]C2=O)C(Cl)Cl` [Complex 2a], the IC50 in [1] (setting [7]) turned out to be 52.1 ± 3.12 µM; in data set [2] (A549, MTS, t = 48 h, n = 3) it was 15.3 ± 1.12 µM; in data set [4] (SGC-7901, MTS, t = 48 h, n = 3), 16.7 ± 0.82 µM; in data set [5], 11.1 ± 0.63 µM; in [6] (setting [8]), 10.1 ± 2.38 µM; in [6] (setting [9]), 11.5 ± 0.91 µM. For the same compound, in data set [5], the “Resistance Index” value is given as “≈1”. Further, in “Hydrolysis rate by HPLC”, the Hydrolysis rate entry is “less than 2%”.

Turning to `N.N.O=C([O-])C1(C(=O)[O-])CCC1.[Pt+2]` [Carboplatin, carboplatin, reference compound], the IC50 in data set [1] (setting [7]) was determined as 74.4 ± 2.51 µM; in data set [2] (A549, MTS, t = 48 h, n = 3), 141 ± 11.3 µM; in [4] (SGC-7901, MTS, t = 48 h, n = 3), 127 ± 11.8 µM; in data set [6] (setting [9]), 65.3 ± 3.55 µM.

Regarding `N.NC1CCCCC1.O=C1[O][Pt][O]C(=O)C12CC(O)C2` [Complex 2b], the IC50 in [1] (setting [7]) was 75 ± 4.83 µM; in [2] (A549, MTS, t = 48 h, n = 3), 71.5 ± 5.21 µM; in [4] (SGC-7901, MTS, t = 48 h, n = 3) it was 69.5 ± 2.31 µM; in [6] (setting [9]) it was 78.2 ± 1.85 µM. The same compound gave a Solubility in water in “Solubility in solvents” of over 25 mg/mL.

Turning to `N.NC1CCCC1.O=C(OC1CC2(C1)C(=O)[O][Pt][O]C2=O)C(Cl)Cl` [Complex 1a], the IC50 in data set [1] (setting [7]) stood at 61.5 ± 1.5 µM; in data set [2] (A549, MTS, t = 48 h, n = 3) it was 17.1 ± 1.55 µM; in data set [4] (SGC-7901, MTS, t = 48 h, n = 3), 21.9 ± 1.96 µM; in data set [5], 18.1 ± 2.41 µM; in [6] (setting [8]), 17.8 ± 3.97 µM; in data set [6] (setting [9]), 18.1 ± 0.85 µM. Also, the “Apoptosis, % (mean ± SD)” value is 0.71 ± 0.45% in [3] (12.5 μM); 1.24 ± 1.73% in [3] (25 μM); 1.27 ± 0.92% in data set [3] (50 μM); 2.88% and 2.88 ± 2.15% in data set [3] (100 μM); 18.93% and 18.93 ± 3.83% in the data set on A549 cells (A549, 12.5 μM); 26.76 ± 2.33% in the data set with A549 cells (A549, 25 μM). For the same compound, the “Apoptosis, % (mean ± SD)” value with A549 cells (A549, 50 μM) turned out to be 40.93 ± 9.66%; with A549 cells (A549, 100 μM) it was 67.46 ± 8.06%. In addition, the “Resistance Index” value in data set [5] is given as “≈1”. In the data set “Hydrolysis rate by HPLC”, the Hydrolysis rate result is “less than 2%”.
